From US20230398130A1, “METHODS AND COMPOSITIONS FOR DIFFERENTIATING STEM CELLS” (Massachusetts Institute of Technology, priority 2020, published 2023)

Legend:
ISC-enriched organoids [1] = assay: Primary screen, 384-well 2.5-D organoid differentiation (ENR+CD, 6 days): carbachol-induced lysozyme secretion (LYZ.S); type: cell-based, murine; conditions: for Dose.FC.LYZ.S: FC vs plate median; for Z.LYZ.S: standard z score; for SSMD.LYZ.S: strictly standardized mean difference
Text: (§1) High-throughput screening.

ISC-enriched organoids [2] = assay: Primary screen, 384-well 2.5-D organoid differentiation (ENR+CD, 6 days, Target Selective Inhibitor Library, vs whole-plate median): ATP (CellTiter-Glo 3D, CTG); conditions: for Dose.FC.CTG: FC vs plate median; for SSMD.CTG: strictly standardized mean difference
ISC-enriched organoids [3] = assay: Primary screen, 384-well 2.5-D organoid differentiation (ENR+CD, 6 days): basal lysozyme secretion (LYZ.NS); type: cell-based, murine; conditions: for Dose.FC.LYZ.NS: FC vs plate median; for SSMD.LYZ.NS: strictly standardized mean difference
Text: as §1

[4] = primary screen, 1st of the 4 dose lines of the treatment (dose not given)
[5] = primary screen, 2nd of the 4 dose lines of the treatment (dose not given)
[6] = primary screen, 3rd of the 4 dose lines of the treatment (dose not given)
[7] = primary screen, 4th of the 4 dose lines of the treatment (dose not given)
[8] = Dose 0.08 uM, primary screen, standard z score
[9] = Dose 0.40 uM, primary screen, standard z score
[10] = Dose 2.00 uM, primary screen, standard z score
[11] = Dose 10.00 uM, primary screen, standard z score
[12] = Dose 0.08 uM, standard z score of FC
[13] = Dose 0.40 uM, standard z score of FC
[14] = Dose 2.00 uM, standard z score of FC
[15] = Dose 10.00 uM, standard z score of FC

C[C@H](NC(=O)[C@@H](O)c1cc(F)cc(F)c1)C(=O)N[C@@H]1C(=O)N(C)c2ccccc2-c2ccccc21 [LY411575]
Dose.FC.LYZ.S (ISC-enriched organoids [1]; Dose 0.08 uM, primary screen): 0.024 log 2 fold change
Dose.FC.LYZ.S (ISC-enriched organoids [1]; Dose 0.40 uM, primary screen): 0.041 log 2 fold change
Dose.FC.LYZ.S (ISC-enriched organoids [1]; Dose 2.00 uM, primary screen): −0.091 log 2 fold change
Dose.FC.LYZ.S (ISC-enriched organoids [1]; Dose 10.00 uM, primary screen): −0.157 log 2 fold change
Z.LYZ.S (ISC-enriched organoids [1]; [4]): 0.155
Z.LYZ.S (ISC-enriched organoids [1]; [5]): 0.266
Z.LYZ.S (ISC-enriched organoids [1]; [6]): −0.590
Z.LYZ.S (ISC-enriched organoids [1]; [7]): −1.015
SSMD.LYZ.S (ISC-enriched organoids [1]; [4]): 0.094
SSMD.LYZ.S (ISC-enriched organoids [1]; [5]): 0.171
SSMD.LYZ.S (ISC-enriched organoids [1]; [6]): −0.596
SSMD.LYZ.S (ISC-enriched organoids [1]; [7]): −0.917
Dose.FC.CTG (ISC-enriched organoids [2]; Dose 0.08 uM, primary screen): 0.035 log 2 fold change
Z.CTG (ISC-enriched organoids [2]; [8]): 0.083
Dose.FC.CTG (ISC-enriched organoids [2]; Dose 0.40 uM, primary screen): −0.172 log 2 fold change
Z.CTG (ISC-enriched organoids [2]; [9]): −0.411
Dose.FC.CTG (ISC-enriched organoids [2]; Dose 2.00 uM, primary screen): −0.172 log 2 fold change
Z.CTG (ISC-enriched organoids [2]; [10]): −0.412
Dose.FC.CTG (ISC-enriched organoids [2]; Dose 10.00 uM, primary screen): −0.259 log 2 fold change
Z.CTG (ISC-enriched organoids [2]; [11]): −0.618
SSMD.CTG (ISC-enriched organoids [2]; [4]): 0.086
SSMD.CTG (ISC-enriched organoids [2]; [5]): −0.312
SSMD.CTG (ISC-enriched organoids [2]; [6]): −0.389
SSMD.CTG (ISC-enriched organoids [2]; [7]): −0.550
Dose.FC.LYZ.NS (ISC-enriched organoids [3]; Dose 0.08 uM, primary screen): 0.040 log 2 fold change
Z.LYZ.NS (ISC-enriched organoids [3]; [8]): 0.347
Dose.FC.LYZ.NS (ISC-enriched organoids [3]; Dose 0.40 uM, primary screen): −0.050 log 2 fold change
Z.LYZ.NS (ISC-enriched organoids [3]; [9]): −0.434
Dose.FC.LYZ.NS (ISC-enriched organoids [3]; Dose 2.00 uM, primary screen): −0.069 log 2 fold change
Z.LYZ.NS (ISC-enriched organoids [3]; [10]): −0.598
Dose.FC.LYZ.NS (ISC-enriched organoids [3]; Dose 10.00 uM, primary screen): −0.109 log 2 fold change
Z.LYZ.NS (ISC-enriched organoids [3]; [11]): −0.949
SSMD.LYZ.NS (ISC-enriched organoids [3]; [4]): 0.217
SSMD.LYZ.NS (ISC-enriched organoids [3]; [5]): −0.432
SSMD.LYZ.NS (ISC-enriched organoids [3]; [6]): −0.593
SSMD.LYZ.NS (ISC-enriched organoids [3]; [7]): −0.931

CC(C)(C)c1nc(-c2cccc(NS(=O)(=O)c3c(F)cccc3F)c2F)c(-c2ccnc(N)n2)s1 [Dabrafenib (GSK2118436)]
Dose.FC.LYZ.S (ISC-enriched organoids [1]; Dose 0.08 uM, ENR+CD, 6 days): 0.236 log 2 fold change
Dose.FC.LYZ.S (ISC-enriched organoids [1]; Dose 0.40 uM, ENR+CD, 6 days): 0.103 log 2 fold change
Dose.FC.LYZ.S (ISC-enriched organoids [1]; Dose 2.00 uM, ENR+CD, 6 days): 0.019 log 2 fold change
Dose.FC.LYZ.S (ISC-enriched organoids [1]; Dose 10.00 uM, ENR+CD, 6 days): −0.384 log 2 fold change
Dose.FC.CTG (ISC-enriched organoids [2]; Dose 0.08 uM, ENR+CD, 6 days): −0.134 log 2 fold change
Z.CTG (ISC-enriched organoids [2]; [12]): −0.320
Dose.FC.CTG (ISC-enriched organoids [2]; Dose 0.40 uM, ENR+CD, 6 days): 0.011 log 2 fold change
Z.CTG (ISC-enriched organoids [2]; [13]): 0.026
Dose.FC.CTG (ISC-enriched organoids [2]; Dose 2.00 uM, ENR+CD, 6 days): −0.279 log 2 fold change
Z.CTG (ISC-enriched organoids [2]; [14]): −0.667
Dose.FC.CTG (ISC-enriched organoids [2]; Dose 10.00 uM, ENR+CD, 6 days): −0.800 log 2 fold change
Z.CTG (ISC-enriched organoids [2]; [15]): −1.911
Dose.FC.LYZ.NS (ISC-enriched organoids [3]; Dose 0.08 uM, ENR+CD, 6 days): 0.095 log 2 fold change
Z.LYZ.NS (ISC-enriched organoids [3]; [12]): 0.830
Dose.FC.LYZ.NS (ISC-enriched organoids [3]; Dose 0.40 uM, ENR+CD, 6 days): 0.049 log 2 fold change
Z.LYZ.NS (ISC-enriched organoids [3]; [13]): 0.427
Dose.FC.LYZ.NS (ISC-enriched organoids [3]; Dose 2.00 uM, ENR+CD, 6 days): −0.001 log 2 fold change
Z.LYZ.NS (ISC-enriched organoids [3]; [14]): −0.006
Dose.FC.LYZ.NS (ISC-enriched organoids [3]; Dose 10.00 uM, ENR+CD, 6 days): −0.250 log 2 fold change
Z.LYZ.NS (ISC-enriched organoids [3]; [15]): −2.178

C[C@H](N[C@@H](CCc1ccccc1)C(=O)O)C(=O)N1CCC[C@H]1C(=O)O.O.O [Enalaprilat Dihydrate]
Dose.FC.LYZ.S (ISC-enriched organoids [1]; Dose 0.08 uM, ENR+CD, 6 days): −0.001 log 2 fold change
Dose.FC.LYZ.S (ISC-enriched organoids [1]; Dose 0.40 uM, ENR+CD, 6 days): 0.111 log 2 fold change
Dose.FC.LYZ.S (ISC-enriched organoids [1]; Dose 2.00 uM, ENR+CD, 6 days): −0.095 log 2 fold change
Dose.FC.LYZ.S (ISC-enriched organoids [1]; Dose 10.00 uM, ENR+CD, 6 days): −0.281 log 2 fold change
Dose.FC.CTG (ISC-enriched organoids [2]; Dose 0.08 uM, ENR+CD, 6 days): −0.190 log 2 fold change
Z.CTG (ISC-enriched organoids [2]; [12]): −0.454
Dose.FC.CTG (ISC-enriched organoids [2]; Dose 0.40 uM, ENR+CD, 6 days): −0.124 log 2 fold change
Z.CTG (ISC-enriched organoids [2]; [13]): −0.296
Dose.FC.CTG (ISC-enriched organoids [2]; Dose 2.00 uM, ENR+CD, 6 days): −0.331 log 2 fold change
Z.CTG (ISC-enriched organoids [2]; [14]): −0.791
Dose.FC.CTG (ISC-enriched organoids [2]; Dose 10.00 uM, ENR+CD, 6 days): −0.979 log 2 fold change
Z.CTG (ISC-enriched organoids [2]; [15]): −2.338
Dose.FC.LYZ.NS (ISC-enriched organoids [3]; Dose 0.08 uM, ENR+CD, 6 days): 0.003 log 2 fold change
Z.LYZ.NS (ISC-enriched organoids [3]; [12]): 0.027
Dose.FC.LYZ.NS (ISC-enriched organoids [3]; Dose 0.40 uM, ENR+CD, 6 days): −0.003 log 2 fold change
Z.LYZ.NS (ISC-enriched organoids [3]; [13]): −0.030
Dose.FC.LYZ.NS (ISC-enriched organoids [3]; Dose 2.00 uM, ENR+CD, 6 days): −0.022 log 2 fold change
Z.LYZ.NS (ISC-enriched organoids [3]; [14]): −0.195
Dose.FC.LYZ.NS (ISC-enriched organoids [3]; Dose 10.00 uM, ENR+CD, 6 days): −0.157 log 2 fold change
Z.LYZ.NS (ISC-enriched organoids [3]; [15]): −1.364

N#Cc1ccc(C(c2ccc(C#N)cc2)n2cncn2)cc1 [Letrozole]
Z.LYZ.S (ISC-enriched organoids [1]; [4]): 0.258
Z.LYZ.S (ISC-enriched organoids [1]; [5]): 0.970
Z.LYZ.S (ISC-enriched organoids [1]; [6]): 0.038
Z.LYZ.S (ISC-enriched organoids [1]; [7]): 0.040
SSMD.LYZ.S (ISC-enriched organoids [1]; [4]): 0.212
SSMD.LYZ.S (ISC-enriched organoids [1]; [5]): 0.764
SSMD.LYZ.S (ISC-enriched organoids [1]; [6]): 0.041
SSMD.LYZ.S (ISC-enriched organoids [1]; [7]): 0.028
Z.CTG (ISC-enriched organoids [2]; [8]): −0.031
Z.CTG (ISC-enriched organoids [2]; [9]): 0.241
Z.CTG (ISC-enriched organoids [2]; [10]): 0.236
Z.CTG (ISC-enriched organoids [2]; [11]): 0.408
SSMD.CTG (ISC-enriched organoids [2]; [4]): −0.043
SSMD.CTG (ISC-enriched organoids [2]; [5]): 0.336
SSMD.CTG (ISC-enriched organoids [2]; [6]): 0.288
SSMD.CTG (ISC-enriched organoids [2]; [7]): 0.606
SSMD.LYZ.NS (ISC-enriched organoids [3]; [4]): 0.554
SSMD.LYZ.NS (ISC-enriched organoids [3]; [5]): 1.104
SSMD.LYZ.NS (ISC-enriched organoids [3]; [6]): 0.063
SSMD.LYZ.NS (ISC-enriched organoids [3]; [7]): −0.042
